Experimental data taken from US20260284018A1, “DUAL INHIBITORS OF DYRK1A AND 5-HT2 FOR TREATING A BRAIN DISORDER” (THE REGENTS OF THE UNIVERSITY OF CALIFORNIA, priority 2023, published 2026).

Tested on: phospho-Tau
Assay: Phospho-Tau assay using cultured rat cortical neurons (okadaic acid insult)
Type: cell-based
Settings: pretreatment, 30 nM okadaic acid, rat cortical cultures, FIG. 14 and 15B
Description: Phospho-Tau Assay Using Cultured Rat Cortical Neurons. Primary cortical cell cultures were prepared as described previously.^2 Briefly, pregnant Sprague Dawley dams were euthanized at embryonic day 18 (E18), and the cortices of the pups were harvested. Cells were plated on poly-d-lysine coated plates at 15,000 cells per well. Cultures were maintained at 37° C. under an atmosphere containing 5% CO2. Plating media consisted of 10% heat-inactivated fetal bovine serum (FBS; Fisher) 1% penicillin-streptomycin (Fisher), and 0.5 mM glutamine (Life Technologies) in Neurobasal (Fisher). After 16-24 h, media was exchanged for replacement media consisting of IX B27 supplement (Fisher), 1% penicillin-streptomycin, 0.5 mM glutamine, and 12.5 μM glutamate in Neurobasal. On DIV6 and DIV13, 50% of media was removed, and feeding media containing 1×B27 supplement, 1% penicillin-streptomycin, 0.5 mM glutamine in Neurobasal was added with an additional 20% volume added to account for evaporation. On DIV14, the volume of each well was adjusted to 180 μL. Next, 1000× solutions of compounds in DMSO were diluted 1:100 into Neurobasal and 20 μL of the resulting solutions was added to the appropriate wells (total dilution=1:1000, 0.1% DMSO). For wells that were not treated with compounds, DMSO was diluted 1:100 into Neurobasal and 20 μL of the resulting solution was added to the appropriate wells. All treatments were randomized. After 24 h, 20 μL was removed from each well. […] After 1 h, neurons were fixed by removing 80% of the media and replacing it with a volume of 4% aqueous paraformaldehyde (ThermoFisher) equal to 50% of the working volume of the well. Then, the cells were incubated at room temperature for 15 min before the fixative was aspirated and each well was washed twice with DPBS. Cells were permeabilized using 0.2% Triton X-100 (ThermoFisher) in DPBS for 15 min at room temperature without shaking. Plates were blocked with blocking buffer (2% bovine serum albumin and […] in DPBS) overnight at 4° C. Then, plates were incubated overnight at 4° C. with gentle shaking in antibody dilution buffer (ADB) (1% bovine serum albumin and […] in DBPS) containing a chicken anti-MAP2 antibody (1:10,000; EnCor, CPCA-MAP2), guinea pig anti-Tau antibody (1:1000; Synaptic Systems), mouse anti-phosphoTau (Ser202/Thr205) antibody (1:1000; Invitrogen), and rabbit anti-phosphoTau (Ser396) antibody (1:1000; Invitrogen). Plates were washed twice with DPBS and once with ADB before being incubated for 1 h at room temperature in ADB containing an anti-chicken IgY secondary antibody conjugated to Alexa Fluor™ Plus 800 (1:1000; Invitrogen), an anti-mouse IgG secondary antibody conjugated to Alexa Fluor™ Plus 680 (1:1000; Invitrogen), an anti-guinea pig IgG secondary antibody conjugated to Alexa Fluor™ 596 (1:1000; Invitrogen), and an anti-rabbit IgG secondary antibody conjugated to Alexa Fluor™ Plus 488 (1:1000; Invitrogen). Plates were washed three times with DBPS, and after the final wash, 100 μL of DPBS was added per well before imaging on a CellInsight™ CX7 High Content Analysis imager at 20× with 12 ROIs taken per well with no bias to location and no overlap of the ROIs. Images were analyzed using Cellnomics Scan software (version 6.6.2). The compartmental analysis assay was used to measure the average intensity of each channel per field and determine the reported intensity ratios.

## CN(C)CCn1ccc2ccccc21 [isoDMT, reference compound]
  hyperphosphorylation of Tau (pTau accumulation) induced by okadaic acid: does not
